Measurements from US12378224B2 (Dong-A Socio Holdings Co., Ltd., priority 2016, dated 2025).

Each compound was assayed against human MER (528-end) (Homo sapiens (Human), UniProt Q12866) (assay: HTRF Kinase Activity Biochemical Assay (KinEASE-TK)). Settings: 10 uM ATP.
Chain of human MER (528-end) (Q12866 528-999 limits assumed): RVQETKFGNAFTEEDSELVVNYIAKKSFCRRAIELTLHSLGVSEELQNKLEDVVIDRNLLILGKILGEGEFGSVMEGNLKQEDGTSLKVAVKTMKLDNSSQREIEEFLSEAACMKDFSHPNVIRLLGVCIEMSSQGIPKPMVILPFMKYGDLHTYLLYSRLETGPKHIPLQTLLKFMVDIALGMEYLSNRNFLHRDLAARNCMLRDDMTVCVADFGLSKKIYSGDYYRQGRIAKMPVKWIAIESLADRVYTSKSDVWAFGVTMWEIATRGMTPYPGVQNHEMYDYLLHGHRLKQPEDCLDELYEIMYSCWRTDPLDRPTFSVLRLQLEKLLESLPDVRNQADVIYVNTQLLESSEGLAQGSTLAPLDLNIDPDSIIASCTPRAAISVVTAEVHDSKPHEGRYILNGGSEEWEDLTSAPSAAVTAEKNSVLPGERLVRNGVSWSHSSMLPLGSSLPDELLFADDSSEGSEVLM
Procedure: For the SAR (structure-activity relationship) and compound screening, HTRF (Homogeneous Time Resolved Fluorescence) kinase activity assay was employed for all MER, AXL and TYRO3 kinases using Cisbio HTRF® KinEASE™-TK kit (Cisbio, USA). The kit includes biotin-labeled TK substrate, streptavidin-XL665, Eu3+-cryptate-labeled TK antibody and HTRF® Detection buffer. There are two main steps in the kinase assay: kinase reaction and detection of phosphorylated substrate. The reaction was carried out in white low volume 384-well plate (Corning, USA) with 25 nL compound in dimethyl sulfoxide in each well. […] Then the reaction was stopped after 1 hour incubation at room temperature by adding 5 uL of HTRF® Detection buffer which also contains 0.375 nM Eu3+-cryptate-labeled TK antibody and 0.062 uM streptavidin-XL665(SA-XL665) to allow for detection of the phosphorylated peptide product. After 1 h incubation at room temperature, the fluorescence intensity was measured with Envision™ plate reader (PerkinElmer, USA). Upon excitation at 340 nm by UV, the energy from Eu3+ donor of the antibody is transferred to the FRET acceptor XL665, and […] emits light at 665 nm. The level of kinase activity was quantified by the HTRF ratio that calculated from the intensity of emission at 665 nm and emission at 620 nm (fluorescence intensity @ 665 nm/fluorescence intensity @ 620 nm×10,000). The recombinant protein of human MER (528-end) was purchased from Carnabio, Japan. The recombinant human AXL (473-end) and TYRO3 (455-end) were purchased from SignalChem, Canada.
Cn1cc(-c2cnc(N)c(C(=O)N[C@@H]3CCN(C(=S)Nc4ccc(Cl)c(Cl)c4)C3)c2)cn1 [Example 44, (R)-2-amino-N-(1-((3,4-dichlorophenyl)carbamothioyl)pyrrolidin-3-yl)-5-(1-methyl-1H-pyrazol-4-yl)nicotinamide] was tested, and the IC50 was greater than 1000 nM. With COc1ccc(NC(=S)N2CC[C@@H](NC(=O)c3cc(-c4cnn(C)c4)cnc3N)C2)cc1 [Example 45, (R)-2-amino-N-(1-((4-methoxyphenyl)carbamothioyl)pyrrolidin-3-yl)-5-(1-methyl-1H-pyrazol-4-yl)nicotinamide] the IC50 was greater than 1000 nM. Cn1cc(-c2cnc(N)c(C(=O)N[C@@H]3CCN(C(=S)Nc4ccc(Br)cc4)C3)c2)cn1 [Example 46, (R)-2-amino-N-(1-((4-bromophenyl)carbamothioyl)pyrrolidin-3-yl)-5-(1-methyl-1H-pyrazol-4-yl)nicotinamide] showed an IC50 greater than 1000 nM. For Cn1cc(-c2cnc(N)c(C(=O)N[C@@H]3CCN(C(=S)Nc4ccc([N+](=O)[O-])cc4)C3)c2)cn1 [Example 47, (R)-2-amino-5-(1-methyl-1H-pyrazol-4-yl)-N-(1-((4-nitrophenyl)carbamothioyl)pyrrolidin-3-yl)nicotinamide], the IC50 was greater than 1000 nM. With CN(C)c1ccc(NC(=S)N2CC[C@@H](NC(=O)c3cc(-c4cnn(C)c4)cnc3N)C2)cc1 [Example 48, (R)-2-amino-N-(1-((4-(dimethylamino)phenyl)carbamothioyl)pyrrolidin-3-yl)-5-(1-methyl-1H-pyrazol-4-yl)nicotinamide] the IC50 was greater than 1000 nM. For Cn1cc(-c2cnc(N)c(C(=O)N[C@@H]3CCN(C(=S)Nc4cc(Cl)cc(Cl)c4)C3)c2)cn1 [Example 50, (R)-2-amino-N-(1-((3,5-dichlorophenyl)carbamothioyl)pyrrolidin-3-yl)-5-(1-methyl-1H-pyrazol-4-yl)nicotinamide], the IC50 was 100 to 1000 nM. Cn1cc(-c2cnc(N)c(C(=O)N[C@@H]3CCN(C(=S)Nc4cccc(-c5ccccc5)c4)C3)c2)cn1 [Example 51, (R)—N-(1-([1,1′-biphenyl]-3-ylcarbamothioyl)pyrrolidin-3-yl)-2-amino-5-(1-methyl-1H-pyrazol-4-yl)nicotinamide] was tested, and the IC50 was 100 to 1000 nM. In the case of Cn1cc(-c2cnc(N)c(C(=O)N[C@@H]3CCN(C(=S)Nc4cccc(Br)c4)C3)c2)cn1 [Example 52, (R)-2-amino-N-(1-((3-bromophenyl)carbamothioyl)pyrrolidin-3-yl)-5-(1-methyl-1H-pyrazol-4-yl)nicotinamide], the IC50 is reported as greater than 1000 nM. Cn1cc(-c2cnc(N)c(C(=O)N[C@@H]3CCN(C(=O)Oc4ccccc4)C3)c2)cn1 [Example 54, phenyl (R)-3-(2-amino-5-(1-methyl-1H-pyrazol-4-yl)nicotinamido)pyrrolidine-1-carboxylate] was tested, and the IC50 was greater than 1000 nM. Cn1cc(-c2cnc(N)c(C(=O)N[C@@H]3CCN(C(=O)Oc4cccc(C(=O)N5CCCCC5)c4)C3)c2)cn1 [Example 55, 3-(piperidine-1-carbonyl)phenyl (R)-3-(2-amino-5-(1-methyl-1H-pyrazol-4-yl)nicotinamido)pyrrolidine-1-carboxylate] gave an IC50 greater than 1000 nM. Cn1cc(-c2cnc(N)c(C(=O)N[C@@H]3CCN(C(=O)Oc4ccc5c(c4)CCCC5)C3)c2)cn1 [Example 56, 5,6,7,8-tetrahydronaphthalen-2-yl (R)-3-(2-amino-5-(1-methyl-1H-pyrazol-4-yl)nicotinamido)pyrrolidine-1-carboxylate] gave an IC50 of 100 to 1000 nM. Compound Cc1cc(OC(=O)N2CC[C@@H](NC(=O)c3cc(-c4cnn(C)c4)cnc3N)C2)cc(C(C)C)c1 [Example 57, 3-isopropyl-5-methylphenyl (R)-3-(2-amino-5-(1-methyl-1H-pyrazol-4-yl)nicotinamido)pyrrolidine-1-carboxylate] has an IC50 greater than 1000 nM. For Cn1cc(-c2cnc(N)c(C(=O)N[C@@H]3CCN(C(=O)Oc4ccccc4OCc4ccccc4)C3)c2)cn1 [Example 58, 2-(benzyloxy)phenyl (R)-3-(2-amino-5-(1-methyl-1H-pyrazol-4-yl)nicotinamido)pyrrolidine-1-carboxylate], the IC50 was greater than 1000 nM. For Cn1cc(-c2cnc(N)c(C(=O)N[C@@H]3CCN(C(=O)Oc4cccc(OCc5ccccc5)c4)C3)c2)cn1 [Example 59, 3-(benzyloxy)phenyl (R)-3-(2-amino-5-(1-methyl-1H-pyrazol-4-yl)nicotinamido)pyrrolidine-1-carboxylate], the IC50 was greater than 1000 nM. With Cn1cc(-c2cnc(N)c(C(=O)N[C@@H]3CCN(C(=O)Oc4cccc(Cl)c4Cl)C3)c2)cn1 [Example 60, 2,3-dichlorophenyl (R)-3-(2-amino-5-(1-methyl-1H-pyrazol-4-yl)nicotinamido)pyrrolidine-1-carboxylate] the IC50 was greater than 1000 nM. Work on Cn1cc(-c2cnc(N)c(C(=O)N[C@@H]3CCN(C(=O)Oc4cc(Cl)ccc4Cl)C3)c2)cn1 [Example 61, 2,5-dichlorophenyl (R)-3-(2-amino-5-(1-methyl-1H-pyrazol-4-yl)nicotinamido)pyrrolidine-1-carboxylate] yielded an IC50 greater than 1000 nM. With Cn1cc(-c2cnc(N)c(C(=O)N[C@@H]3CCN(C(=O)Oc4ccccc4C#N)C3)c2)cn1 [Example 62, 2-cyanophenyl (R)-3-(2-amino-5-(1-methyl-1H-pyrazol-4-yl)nicotinamido)pyrrolidine-1-carboxylate] the IC50 was greater than 1000 nM. Compound COc1cc(Br)ccc1OC(=O)N1CC[C@@H](NC(=O)c2cc(-c3cnn(C)c3)cnc2N)C1 [Example 63, 4-bromo-2-methoxyphenyl (R)-3-(2-amino-5-(1-methyl-1H-pyrazol-4-yl)nicotinamido)pyrrolidine-1-carboxylate] has an IC50 greater than 1000 nM. For COC(=O)c1cccc(OC(=O)N2CC[C@@H](NC(=O)c3cc(-c4cnn(C)c4)cnc3N)C2)c1 [Example 64, 3-(methoxycarbonyl)phenyl (R)-3-(2-amino-5-(1-methyl-1H-pyrazol-4-yl)nicotinamido)pyrrolidine-1-carboxylate], the IC50 was greater than 1000 nM. In the case of COC(=O)c1ccc(OC)cc1OC(=O)N1CC[C@@H](NC(=O)c2cc(-c3cnn(C)c3)cnc2N)C1 [Example 65, 5-methoxy-2-(methoxycarbonyl)phenyl (R)-3-(2-amino-5-(1-methyl-1H-pyrazol-4-yl)nicotinamido)pyrrolidine-1-carboxylate], the IC50 is reported as greater than 1000 nM. Cn1cc(-c2cnc(N)c(C(=O)N[C@@H]3CCN(C(=O)OC4CCCCC4)C3)c2)cn1 [Example 66, cyclohexyl (R)-3-(2-amino-5-(1-methyl-1H-pyrazol-4-yl)nicotinamido)pyrrolidine-1-carboxylate] showed an IC50 greater than 1000 nM. Cn1cc(-c2cnc(N)c(C(=O)N[C@@H]3CCN(C(=O)Oc4ccc5cc(Br)ccc5c4)C3)c2)cn1 [Example 67, 6-bromonaphthalen-2-yl (R)-3-(2-amino-5-(1-methyl-1H-pyrazol-4-yl)nicotinamido)pyrrolidine-1-carboxylate] was tested, and the IC50 was 100 to 1000 nM. Cn1cc(-c2cnc(N)c(C(=O)N[C@@H]3CCN(C(=O)Oc4cccc5ccccc45)C3)c2)cn1 [Example 68, naphthalen-1-yl (R)-3-(2-amino-5-(1-methyl-1H-pyrazol-4-yl)nicotinamido)pyrrolidine-1-carboxylate] showed an IC50 greater than 1000 nM. In the case of Cn1cc(-c2cnc(N)c(C(=O)N[C@@H]3CCN(C(=O)Oc4ccc5ccccc5c4N)C3)c2)cn1 [Example 69, 1-aminonaphthalen-2-yl (R)-3-(2-amino-5-(1-methyl-1H-pyrazol-4-yl)nicotinamido)pyrrolidine-1-carboxylate], the IC50 is reported as 100 to 1000 nM.
